Experimental data published in patent publication US8834840B1, “Magnetic resonance imaging of self-assembled biomaterial scaffolds” (Northwestern University, priority 2006, dated 2014).

Assay: T1 measurements / MR imaging of PA gels at 9.4 T
Type: physicochemical
Details: gel of 0.75 wt. % filler PA 1, agent mixed in at 0.1 mM Gd(III) (1 alone without Gd(III)), spin-echo
Experimental: FIG. 4 depicts results of T1 study of PA gels and mixed PA gels. The concentration of Gd(III) is 0.1 mM in all samples except a and the concentration of filler PA is […] in each case (all samples form self-supporting gels): a corresponds to compound 1 alone and is used as a standard, b refers to 1 mixed with DTPA, c refers to 1 mixed with compound 2, d refers to 1 mixed with compound 3, e through j are mixed with compound 3 and their structures are depicted above. Error bars represent one standard deviation.
Mixing PACAs 2 or 3 with filler PA 1 could be successfully imaged by MR (FIG. 3). The gels are homogeneous in image intensity throughout the samples, which implies uniform mixing of the PACA molecules within the filler PA at MR resolution. If heterogeneous mixing of PAs occur on a large enough scale, domains of bright and dark intensity would be observed. […] The gels were made using a 0.75 wt. % of filler PA. The PACA molecule was mixed into this solution before gelling as was the DTPA. Images were acquired using a spin-echo pulse sequence with TR 750 ms, TC 12 ms, slice thickness of 1 mm, FOV of 2 cm, at 9.4 T on an Oxford superconducting magnet and Bruker software. The T1 of these gels were measured at 3.03±0.05 s, 1.89±0.06 s, 1.08±0.06 s, and 2.81±0.05 s, respectively, the faster T1's resulting in higher contrast.
T1 Measurements. […]

O=C(O)CN(CCN(CC(=O)O)CC(=O)O)CCN(CC(=O)O)CC(=O)O [DTPA, diethylenetriaminepentaacetate]
T1 of gels: 2.81 ± 0.05 s
